# Source: patent publication US8757784B2, “Ink for ink jet recording and recording method” (Seiko Epson Corporation, priority 2012, dated 2014)
# Experiment: physchem
# Settings: not given
# From the text: Herein, the “logP value” is an index that represents hydrophobicity of a compound. The logP value represents, in an octanol/water system, in which ratio a solute is distributed in these two layers. In other words, when the logP value of the solute is bigger, the hydrophobicity is higher and the solute is well dissolved in an octanol phase.
# For example, the logP value can be determined using a flask shaking method using the solute and two types of solvents being actually placed in a flask and mixed by shaking the flask well, or a HPLC method using a high performance liquid chromatography (HPLC).
Structure (SMILES),logP,logP value
"CC(O)C(C)O (stereo not shown) [2,3-butanediol]",-0.36,–
"OCCCCO [1,4-butanediol]",0.5,0.50
"CC(C)C(O)C(C)(C)CO (stereo not shown) [2,2,4-trimethyl-1,3-pentanediol]",2,–

# Same assay, conditions: octanol/water system
row,Structure (SMILES),logP value
1,OCC(O)CO [glycerin],−2.70
2,"OCCCO [1,3-propanediol]",−1.33
3,CCC(CO)(CO)CO [trimethylol propane],−0.47

# Same assay, conditions: octanol/water, logP value, octanol/water system
row,Structure (SMILES),logP
1,"CC(O)CC(C)(C)O (stereo not shown) [2-methyl-2,4-pentanediol]",0.88
2,"CC(C)(O)CO [2-methyl-1,2-propanediol]",0.026
3,"CCC(O)CO (stereo not shown) [1,2-butanediol]",-0.32
4,"CCCC(O)CO (stereo not shown) [1,2-pentanediol]",0.01
5,"CCC(O)CCO (stereo not shown) [1,3-pentanediol]",-0.16
6,CC(O)CO (stereo not shown) [propylene glycol],-0.92
7,"CC(CO)CO [2-methyl-1,3-propanediol]",-0.6
8,"CC(CCO)CCO [3-methyl-1,5-pentanediol]",-0.2
9,"CC(C)(O)CCO [3-methyl-1,3-butanediol]",-0.33
10,"CCCCC(CC)(CO)CO [2-butyl-2-ethyl-1,3-propanediol]",2.1
11,"CC(C)(O)CCC(C)(C)O [2,5-dimethyl-2,5-hexanediol]",1.53
12,"CC(O)CCC(C)O (stereo not shown) [2,5-hexanediol]",0.62
13,"CCCCC(O)CO (stereo not shown) [1,2-hexanediol]",0.5
14,"CC(C)(CO)CO [2,2-dimethyl-1,3-propanediol]",-0.3
15,CCCC(=O)OCC(O)CO (stereo not shown) [1-butanoyl glycerol],0
